Where two headings read alike, the source gives them in different places. Where only a bound is given, the exact number is not on record here.

One data set addresses T1, CYP2C19 (Homo sapiens, UniProt P33261).
T1 construct: host or cells: E. coli
Put plainly: CYP450 inhibition, fluorescent substrate assay, CYP2C19. Type of data set: biochemical. Particulars: E. coli expressed CYP2C19, pH 7.4, probe CEC (25 μM), 10 μM test compound, substrate CEC 25 μM, read-out: 2C19-CEC % inh. Put shortly: (§1)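 Test compounds were preincubated for 5 min at 37° C with CYP P450 enzyme and an NADPH generating system before phosphate-buffered (pH 7.4) fluorogenic substrate was added. Reactions were stopped with acetonitrile and the fluorescent product was read on a plate reader. Inhibition appears as loss of fluorescent signal.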

Data set [1] deals with wild-type HIV-1 IIIB strain. Kind of data set: Antiviral activity in MT4 LTR-EGFP cellular assay. Type of data set: cell-based. Particulars: Human immunodeficiency virus 1, 72 h; wild-type HIV-1 IIIB, MT4 LTR-EGFP cells, three days after infection; pEC50 = -log10(EC50); read-out: Antiviral Activity IIIB pEC50 (converted).
The next data set can be described thus: in vitro. Type of data set: in vitro ADME, human. As to conditions: human, pH 7.4.
The nature of data set [2]: Cytotoxicity in mock-infected MT4 CMV-EGFP cells. Type of data set: cell-based. As to conditions: human, pCC50 = -log10(CC50), read-out: Toxicity MT4 pCC50 (converted).
The target in another data set is CYP2C9 (Homo sapiens, UniProt P11712). Kind of data set: CYP450 inhibition, fluorescent substrate assay, CYP2C9. Type of data set: biochemical. Particulars: pH 7.4. In short, it runs like this:
as §1

The target of a further data set is T2, CYP2D6 (Homo sapiens, UniProt P10635).
T2 construct: host or cells: E. coli
Put plainly: CYP450 inhibition, fluorescent substrate assay, CYP2D6. Particulars: E. coli expressed CYP2D6, pH 7.4, probe AMMC (3 μM), 10 μM test compound, substrate AMMC 3 μM, read-out: 2D6-AMMC % inh. Type of data set: biochemical. Put shortly: as §1

The target in the next data set is T3, CYP1A2 (Homo sapiens, UniProt P05177).
T3 construct: host or cells: E. coli
T3 sequence (P05177 1-516): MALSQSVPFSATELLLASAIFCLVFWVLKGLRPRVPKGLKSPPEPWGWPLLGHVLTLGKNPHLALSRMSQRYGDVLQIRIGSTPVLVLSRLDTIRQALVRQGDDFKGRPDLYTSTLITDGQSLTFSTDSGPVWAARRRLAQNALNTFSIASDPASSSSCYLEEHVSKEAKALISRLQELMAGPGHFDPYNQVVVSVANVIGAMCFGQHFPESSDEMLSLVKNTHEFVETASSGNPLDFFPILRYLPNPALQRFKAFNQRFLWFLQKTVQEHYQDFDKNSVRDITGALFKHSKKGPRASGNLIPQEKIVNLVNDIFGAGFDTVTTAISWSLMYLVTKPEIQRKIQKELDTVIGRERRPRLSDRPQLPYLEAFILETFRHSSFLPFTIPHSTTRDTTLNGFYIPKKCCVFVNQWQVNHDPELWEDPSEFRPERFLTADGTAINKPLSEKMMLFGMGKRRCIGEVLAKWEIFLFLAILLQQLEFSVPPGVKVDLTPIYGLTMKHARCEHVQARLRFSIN
Kind of data set: CYP450 inhibition, fluorescent substrate assay, CYP1A2. Type of data set: biochemical. As to conditions: E. coli expressed CYP1A2, pH 7.4, probe CEC (5 μM), 10 μM test compound, substrate CEC 5 μM, read-out: 1A2-CEC % inh. In short, it runs like this: as §1

For the next data set, the target named is T4, CYP3A4 (Homo sapiens, UniProt P08684).
T4 construct: host or cells: E. coli
Put plainly: CYP450 inhibition, fluorescent substrate assay, CYP3A4. Type of data set: biochemical. As to conditions: 10 μM test compound; for inhibition at 10 min, 10 μM: E. coli expressed CYP3A4, pH 7.4, probe DBF (1 μM), substrate DBF 1 μM, read-out: 3A4-DBF % inh. In short, it runs like this:
as §1

[3] abbreviates: E. coli expressed CYP3A4, pH 7.4, probe BFC (150 μM), substrate BFC 150 μM, read-out: 3A4-BFC % inh.
Setting [4] is: E. coli expressed CYP3A4, pH 7.4, probe BQ (60 μM), substrate BQ 60 μM, read-out: 3A4-BQ % inh.

T1 sequence (P33261 whole entry): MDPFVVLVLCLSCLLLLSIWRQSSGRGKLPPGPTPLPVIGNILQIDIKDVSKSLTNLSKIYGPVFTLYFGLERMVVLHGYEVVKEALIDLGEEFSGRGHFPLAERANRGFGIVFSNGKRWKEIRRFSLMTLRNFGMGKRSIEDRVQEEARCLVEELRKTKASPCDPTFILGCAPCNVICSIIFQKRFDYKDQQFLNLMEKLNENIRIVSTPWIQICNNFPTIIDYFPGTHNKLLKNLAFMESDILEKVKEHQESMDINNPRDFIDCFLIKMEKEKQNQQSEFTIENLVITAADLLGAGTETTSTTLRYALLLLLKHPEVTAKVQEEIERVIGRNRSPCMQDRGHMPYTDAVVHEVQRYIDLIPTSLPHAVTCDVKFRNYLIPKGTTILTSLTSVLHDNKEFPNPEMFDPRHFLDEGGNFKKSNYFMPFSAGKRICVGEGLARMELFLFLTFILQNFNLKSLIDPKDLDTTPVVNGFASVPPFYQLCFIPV
T2 sequence (P10635 whole entry): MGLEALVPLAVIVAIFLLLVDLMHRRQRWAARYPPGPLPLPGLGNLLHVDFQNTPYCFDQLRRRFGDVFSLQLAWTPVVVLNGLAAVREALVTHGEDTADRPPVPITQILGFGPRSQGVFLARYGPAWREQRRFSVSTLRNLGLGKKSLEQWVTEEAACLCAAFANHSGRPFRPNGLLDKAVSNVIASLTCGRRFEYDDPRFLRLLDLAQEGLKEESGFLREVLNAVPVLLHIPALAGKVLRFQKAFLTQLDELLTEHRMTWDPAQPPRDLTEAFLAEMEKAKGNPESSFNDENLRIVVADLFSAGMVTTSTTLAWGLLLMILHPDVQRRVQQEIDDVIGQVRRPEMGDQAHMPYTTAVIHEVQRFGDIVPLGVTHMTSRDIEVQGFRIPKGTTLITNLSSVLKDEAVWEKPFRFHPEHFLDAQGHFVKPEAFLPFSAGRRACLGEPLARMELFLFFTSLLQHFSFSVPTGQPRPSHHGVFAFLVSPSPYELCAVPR
Chain of CYP2C9 (P11712 whole entry): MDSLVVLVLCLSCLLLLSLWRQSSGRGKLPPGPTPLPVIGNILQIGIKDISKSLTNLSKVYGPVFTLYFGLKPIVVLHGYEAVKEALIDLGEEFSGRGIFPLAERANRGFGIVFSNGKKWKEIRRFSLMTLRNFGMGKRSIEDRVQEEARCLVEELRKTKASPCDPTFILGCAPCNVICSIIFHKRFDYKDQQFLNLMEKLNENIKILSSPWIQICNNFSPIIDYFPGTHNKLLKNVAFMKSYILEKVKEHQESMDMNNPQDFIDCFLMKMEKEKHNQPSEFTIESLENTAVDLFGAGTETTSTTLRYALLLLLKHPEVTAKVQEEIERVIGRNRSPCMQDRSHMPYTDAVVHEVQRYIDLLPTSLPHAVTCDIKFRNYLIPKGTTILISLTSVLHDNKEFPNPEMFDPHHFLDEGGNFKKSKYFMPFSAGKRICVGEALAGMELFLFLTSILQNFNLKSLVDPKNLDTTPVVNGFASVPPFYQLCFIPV
T4 sequence (P08684 whole entry): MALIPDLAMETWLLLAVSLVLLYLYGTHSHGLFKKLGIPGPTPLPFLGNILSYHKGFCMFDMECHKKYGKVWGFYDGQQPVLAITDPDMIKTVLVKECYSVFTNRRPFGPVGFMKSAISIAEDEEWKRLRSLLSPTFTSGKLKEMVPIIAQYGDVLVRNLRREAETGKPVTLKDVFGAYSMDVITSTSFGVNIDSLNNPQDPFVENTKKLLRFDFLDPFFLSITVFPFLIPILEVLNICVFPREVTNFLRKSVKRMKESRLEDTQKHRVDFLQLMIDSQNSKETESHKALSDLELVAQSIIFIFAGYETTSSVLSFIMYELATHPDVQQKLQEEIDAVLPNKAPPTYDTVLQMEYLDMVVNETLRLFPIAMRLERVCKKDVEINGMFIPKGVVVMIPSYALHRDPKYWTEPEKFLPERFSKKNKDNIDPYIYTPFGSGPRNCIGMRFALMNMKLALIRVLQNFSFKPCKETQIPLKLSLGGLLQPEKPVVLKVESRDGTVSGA

As to `Cc1ccc(C(=O)N(CC(C)C)C[C@@H](O)[C@H](Cc2ccccc2)NC(=O)OCc2cncs2)cc1` [Compound C3], the inhibition at 30 min, 10 μM came to 90% on CYP2C19, 99% on CYP2C9, 95% on CYP3A4 (setting [3]) and 85% at CYP3A4 (setting [4]). Also, the EC50 in data set [1] is 52.5 µM. In addition, in the data set “in vitro”, the recovery at 15 min, 5 μM is 54%. Moreover, the CC50 at 3 days in data set [2] is 70.8 µM. The inhibition at 45 min, 10 μM at CYP2D6 stood at 49%. The inhibition at 15 min, 10 μM at CYP1A2 is 20%. The inhibition at 10 min, 10 μM on CYP3A4 stood at 97%.

Turning to `CC(C)CN(C[C@@H](O)[C@H](Cc1ccccc1)NC(=O)OCc1cncs1)C(=O)c1ccccn1` [Compound C9], the inhibition at 30 min, 10 μM was 64% on CYP2C19, 85% against CYP2C9, 91% at CYP3A4 (setting [3]) and 78% on CYP3A4 (setting [4]). Moreover, the EC50 in data set [1] is more than 100 µM. The compound also registered a recovery at 15 min, 5 μM in the data set “in vitro” of 55%. Further, the CC50 at 3 days in data set [2] was more than 100 µM. Also, the inhibition at 45 min, 10 μM at CYP2D6 was found to be 66%. Also, on CYP1A2, the inhibition at 15 min, 10 μM worked out at 4%. Moreover, the inhibition at 10 min, 10 μM on CYP3A4 was 89%.

`Cc1cccc(C(=O)N(CC(C)C)C[C@@H](O)[C@H](Cc2ccccc2)NC(=O)OCc2cncs2)c1` [Compound C10]: the inhibition at 30 min, 10 μM on CYP2C19 is 92%; at CYP2C9, 96%; on CYP3A4 (setting [3]), 95%; on CYP3A4 (setting [4]), 79%. Also, in data set [1], the EC50 is more than 100 µM. The recovery at 15 min, 5 μM in “in vitro” is 47%. Also, the CC50 at 3 days in data set [2] is more than 100 µM. Further, on CYP2D6, the inhibition at 45 min, 10 μM came out at 62%. Moreover, the inhibition at 15 min, 10 μM on CYP1A2 was 33%. Also, the inhibition at 10 min, 10 μM at CYP3A4 is 93%.

Turning to `CC(C)CN(C[C@@H](O)[C@H](Cc1ccccc1)NC(=O)OCc1cncs1)C(=O)OCc1cncs1` [Compound C25], the inhibition at 30 min, 10 μM amounted to 97% on CYP2C19, 95% against CYP2C9, 100% at CYP3A4 (setting [3]) and 79% at CYP3A4 (setting [4]). Moreover, the EC50 in data set [1] is 69.2 µM. Moreover, the recovery at 15 min, 5 μM in “in vitro” was 63%. Also, in data set [2], the CC50 at 3 days was 77.6 µM. The inhibition at 45 min, 10 μM at CYP2D6 turned out to be 91%. Also, the inhibition at 15 min, 10 μM at CYP1A2 came out at 25%. Further, the inhibition at 10 min, 10 μM on CYP3A4 was 89%.

Take `CC(C)CN(C[C@@H](O)[C@H](Cc1ccccc1)NC(=O)OCc1cncs1)C(=O)c1cnc2ccccc2n1` [Compound C12, 1S-2R-{1-Benzyl-2-hydroxy-3-[isobutyl-(quinoxaline-2-carbonyl)-amino]-propyl}-carbamic acid thiazol-5-ylmethyl ester]: the inhibition at 30 min, 10 μM at CYP2C19 came to 81%; against CYP2C9, 92%; at CYP3A4 (setting [3]), 70%; at CYP3A4 (setting [4]), 79%. Moreover, the EC50 in data set [1] is 60.3 µM. The compound also displayed a recovery at 15 min, 5 μM in “in vitro” of 67%. Also, in data set [2], the CC50 at 3 days was 61.7 µM. Besides, the inhibition at 45 min, 10 μM at CYP2D6 was determined as 0%. Further, at CYP1A2, the inhibition at 15 min, 10 μM stood at 21%. The inhibition at 10 min, 10 μM at CYP3A4 amounted to 93%.

With `CC(C)CN(C[C@@H](O)[C@H](Cc1ccccc1)NC(=O)OCc1cncs1)C(=O)c1ccncc1` [Compound C8], the inhibition at 30 min, 10 μM on CYP2C19 stood at 76%; on CYP2C9, 95%; on CYP3A4 (setting [3]), 91%; on CYP3A4 (setting [4]), 79%. The EC50 in data set [1] was more than 100 µM. This compound yielded a recovery at 15 min, 5 μM in the data set “in vitro” of 81%. Besides, in data set [2], the CC50 at 3 days was more than 100 µM. Further, on CYP2D6, the inhibition at 45 min, 10 μM came out at 39%. Besides, the inhibition at 15 min, 10 μM at CYP1A2 came to 4%. For the same compound, the inhibition at 10 min, 10 μM on CYP3A4 turned out to be 91%.

The values above are taken from US8664391B2, “Amide compounds as boosters of antivirals” (Janssen R&D Ireland Ltd, priority 2008, dated 2014).
